Key:
intestinal villi = assay: Morphological analysis of intestinal villi after ex vivo ischemia (Van Gieson/hematoxylin); set-up: species or system rat; conditions: for intestinal villi structure: jejunum and ileum after 2 hrs ex vivo ischemia
Description: After the two-hour ischemic incubation, intestinal pieces from segments 2 (jejunum) and 7 (ileum) were embedded in O.C.T. (Tissue Tek, Torrance, Calif.) and snap frozen in t-methyl butane in liquid nitrogen. Intestine samples from segments 2 and 7 (for protease analysis) and segment 7 (for immunoblots) were snap frozen and stored for subsequent homogenization. Morphological Analysis and TUNEL Labeling—Intestinal segments frozen in O.C.T. were cut into 5 μm sections. Sections were fixed using ice-cold methanol (8 min at −20° C.) and immediately washed four times in distilled water. Nuclei were stained by incubating sections in freshly mixed Weigert's Iron Hematoxylin A and B (Electron Microscopy Science, Hatfield, Pa.) (10 min) followed by rinsing thoroughly with water. Collagen fibers were labeled by incubating (2 min) in Van Gieson's Solution (Electron Microscopy Science). Prior to mounting, all slides were dehydrated (70, 95, 100% ethanol) and cleaned with xylene. After air-drying overnight, sections were mounted using Hard Set Mounting Media (Vector Laboratories, Burlingame, Calif.). Digital images were captured with a 20× objective (numerical aperture 0.5) and digitally montaged together after background subtraction. The separation of the mucosal epithelial layer was quantified for groups that had intact villi following the two hour ischemic period. Images were blinded and the distance between the mucosal epithelial layer and the lamina propria was measured over five lengths across a minimum of 6 villi.

[1] = test system: mucin 13, occludin, and E-cadherin; assay: Immunoblots of epithelial barrier proteins in post-ischemic intestinal homogenates (segment 7); set-up: species or system rat; conditions: ileum segment 7, two hour ex vivo ischemia
Description: Immunoblotting—To determine whether selected epithelial barrier proteins were degraded during ischemia, pre- and post-ischemic intestinal tissue homogenates (segment 7) were analyzed for relative levels of mucin 13, occludin, and E-cadherin.
Tissues were homogenized for immunoblot analysis in buffer (CelLytic, Sigma-Aldrich) with protease inhibitor cocktail (HALT, Thermo Scientific, 1:100 dilution) and centrifuged (1×10^4 g, 20 min). Protein concentration in supernatants was determined (BCA, ThermoScientific). To separate proteins by gel electrophoresis, 30 μg of protein/well were loaded in 8 or 12% resolving gels with 4% stacking gels and transferred to nitrocellulose membranes (Bio-Rad, Hercules, Calif.). Membranes were blocked for one hour with either 5% bovine serum albumin (BSA) or 5% nonfat milk in tris-buffered saline with 0.5% Tween-20 (TBS-T). Primary antibodies diluted in 1% BSA or 1% nonfat milk against mucin 13 (1:1000, extracellular domain, sc-66973 Santa Cruz Biotechnology, Santa Cruz, Calif.), E-cadherin (1:1000, intracellular domain, 33-4000, Invitrogen), occludin (1:1000, intracellular domain, 33-1500, Invitrogen), pancreatic trypsin (1:1000, sc-137077 Santa Cruz Biotechnology), or β-actin (1:1000, sc-130301, Santa Cruz Biotechnology) were incubated overnight at 4° C. After incubation, membranes were washed with TBS-T (3×, 10 min) before addition of goat anti-rabbit or rabbit anti-mouse secondary antibodies (Santa Cruz Biotechnology) diluted 1:1000 in TBS-T. Following secondary antibody incubation (60 min), the membranes were washed with TBS-T (3×) and developed.

hemorrhagic shock = assay: Hemorrhagic shock model with enteral pretreatment, unflushed intestine (Example 1); assay type: in vivo, rat; conditions: for lesions in the jejunum (gross morphology): enteral pretreatment, HS 90 min at 30 mmHg, 3 hours observation; for rate of MAP decrease during reperfusion: last 2 hours of reperfusion, mean±SD
Description: Hemorrhagic Shock Model—Hemorrhagic shock (HS) was used to study the ability of treatments, shown in the ex vivo portion of the study to preserve the barrier and protect the intestine in the absence of luminal content, to prevent intestinal injury after ischemia/reperfusion injury in vivo when luminal content is present. Following general anesthesia, the femoral artery and vein were cannulated. Systolic, diastolic, heart rate, and mean arterial pressure (MAP) were recorded throughout the procedure using LabChart (AD Instruments, Dunedin, New Zealand). Rats were randomly divided into the following groups: […] No-HS animals were cannulated and immediately sacrificed for tissue collection. In the HS groups, anesthetized rats were subjected to laparotomy and the intestine was exposed, and a “Pre-HS” image was captured. […] Extra caution was applied to avoid over-inflation of the intestine. After injection, the intestine was carefully returned to the peritoneal cavity and the wound was covered with moist gauze and plastic wrap to keep the animal warm. To prevent clotting in catheters and shed blood, animals were heparinized (1 U/ml i.v., assuming 6% blood volume per body weight) prior to inducing hemorrhagic shock. […] At the end of ischemia, the shed blood was returned to the animal (0.5 ml/min). […] Gross morphology images of the intestine were captured, “Post-HS” At the end of reperfusion, segments of intestine (jejunum; 10 cm from ligament of Treitz) were snap frozen for homogenization and embedded in O.C.T. (Tissue Tek). MPO Activity—Myeloperoxidase (MPO) activity in the intestine as a measure for neutrophil accumulation was selected as an index of reperfusion injury after hemorrhagic shock. Segments from the jejunum (about at the position of segment 2 in the ex vitro study) were homogenized with their native luminal contents (PBS pH 6.0 in 0.5% HTAB). 40 μl of 2 mg/ml intestine homogenate was added to 180 μl of PBS (pH 6.0) mixed with 0.167 mg/ml o-dianisidine dihydrochloride (Sigma-Aldrich) in duplicate and 0.001% H2O2 (w/v). Absorbance was measured kinetically at 450 nm every 5 minutes for 1 hour at 37° C. As negative controls, 180 μl of PBS (pH 6.0) was added to 20 μl of sample and the absorbance values of these samples were subtracted from the measurements with the substrate. The change in absorbance was linear within this period, and MPO activity is presented as the change in absorbance per minute per milligram of protein.

20 kDa serine proteases = assay: Gelatin gel zymography of pre-ischemic intestinal homogenates renatured with inhibitor: serine protease bands; assay type: biochemical, rat; conditions: inhibitor in renaturing and developing buffer: tranexamic acid 20 mM, doxycycline 1 mg/ml, GM-6001 1 ug/ml
Description: Gelatin Gel Zymography—Segments 2 and 7 from pre-ischemic intestines were homogenized (0.1 g tissue/ml homogenization buffer; PBS pH 7.4 with 0.5% hexadecyltrimethyl bromide) and centrifuged at 1.4×10^4 g for 20 minutes. Supernatants were stored at −80° C. until samples were processed.
To assess the proteolytic activities of individual proteases in intestinal tissue samples, sample volumes of 1 μl (with 2 μg of protein) were separated by gel electrophoresis in SDS-PAGE gels containing 80 μg/ml gelatin. […] The molecular weights of the proteases were estimated by use of a standard protein ladder (Invitrogen). Gels were digitized and bands were analyzed by densitometry in ImageJ (rsbweb.nih.gov/ij/).
These gels were compared to a concurrently run gel processed normally.

Row | SMILES | intestinal villi structure (intestinal villi) | separation between the lamina propria and the mucosal epithelial layer (intestinal villi; jejunum, after 2 hrs ex vivo ischemia) | E-cadherin levels (immunoblot) [1] | mucin 13 levels (immunoblot) [1] | occludin levels (immunoblot) [1] | lesions in the jejunum (gross morphology) (hemorrhagic shock) | rate of MAP decrease during reperfusion (hemorrhagic shock) | 20 kDa serine protease activity bands (20 kDa serine proteases)
1 | O=C[C@H](O)[C@@H](O)[C@H](O)[C@H](O)CO [Glucose, glucose] | attenuated | still observed | decreased irrespective of the presence of glucose | preserved | preserved | had lesions form in the jejunum | −0.21±0.13 mmHg/min | –
2 | NC[C@H]1CC[C@H](C(=O)O)CC1 [tranexamic acid] | did not prevent the villi destruction | – | – | able to preserve mucin 13 levels | prevented a significant decrease in occludin | had lesions form in the jejunum | −0.27±0.16 mmHg/min | no significant effect

From patent US20150297619A1, “METHODS AND COMPOSITIONS FOR PRESERVING THE MUCOSAL BARRIER” (priority 2014, published 2015)
